Counter-ions that a name gives are not always drawn.
**Q.** Which melting point does the source give for `CC(C)(O)c1ccc(CNC(=O)c2cccnc2Oc2ccc(F)cc2)cc1` here?
**A.** The melting point was 106 to 108 °C.

**Q.** Which melting point does the source give for `O=C(NCc1ccccc1Cl)c1cccnc1Oc1cccnc1` (as salt: HCl) [Example 31, N-(2-Chloro-benzyl)-2-(pyridin-3-yloxy)-nicotinamide] here?
**A.** The melting point was 174 to 176 °C.

**Q.** With `C[C@H](NC(=O)c1cccnc1Oc1cccnc1)c1cccs1` (as salt: HCl) [Example 46, (S)(+)-2-(Pyridin-3-yloxy)-N-(1-thiophen-2-yl-ethyl)-nicotinamide] as the molecule, how does the melting point read?
**A.** The melting point was 196 to 198 °C.

**Q.** With `C[C@@H](NC(=O)c1cccnc1Oc1cccnc1)c1cccs1` (as salt: HCl) [Example 47, (R)(−)-2-(Pyridin-3-yloxy)-N-(1-thiophen-2-yl-ethyl)-nicotinamide] as the molecule, how does the melting point read?
**A.** Its melting point is 197 to 199 °C.

**Q.** Which melting point does the source give for `CN(C)c1cccc(Oc2ncccc2C(=O)NCc2ccccc2Cl)c1` (as salt: HCl) [Example 118, N-(2-Chloro-benzyl)-2-(3-dimethylamino-phenoxy)-nicotinamide] here?
**A.** The melting point was 85 to 87 °C.

**Q.** Which melting point does the source give for `CC(NC(=O)c1cccnc1Oc1ccc(F)cc1)c1ccc(Cl)s1` (single isomer, unassigned; (+)) [Example 141, (+)-N-[1-(5-Chloro-thiophen-2-yl)-ethyl]-2-(4-fluoro-phenoxy)-nicotinamide] here?
**A.** Its melting point is 78 to 80 °C.

**Q.** Which melting point does the source give for `CC(O)c1ccc(CNC(=O)c2cccnc2Oc2cccnc2)s1` (single isomer, unassigned; (+)) [Example 205, (+)-N-[5-(1-Hydroxy-ethyl)-thiophen-2-ylmethyl]-2-(pyridin-3-yloxy)-nicotinamide] here?
**A.** The melting point was 88 to 90 °C.

**Q.** Which melting point does the source give for `CC(O)C1CCC(CNC(=O)c2cccnc2Oc2ccc(F)c(C#N)c2)CC1` (single isomer, unassigned; (-)) [Example 320, (−)-2-(3-Cyano-4-fluoro-phenoxy)-N-[4-(1-hydroxy-ethyl)-cyclohexylmethyl]-nicotinamide] here?
**A.** Its melting point is 134 to 135 °C.

**Q.** With `O=C(NCc1cccs1)c1cccnc1Oc1ccc(F)cc1` [Example 1, 2-(4-Fluoro-phenoxy)-N-thiophen-2-ylmethyl-nicotinamide] as the molecule, how does the melting point read?
**A.** Its melting point is 89 to 91 °C.

**Q.** Which melting point does the source give for `O=C(NCc1ccco1)c1cccnc1Oc1ccc(F)cc1` [Example 2, 2-(4-Fluoro-phenoxy)-N-furan-2-ylmethyl-nicotinamide] here?
**A.** The melting point was 71 to 73 °C.

**Q.** With `O=C(NCc1c(F)cccc1Cl)c1cccnc1Oc1ccc(F)cc1` [Example 5, N-(2-Chloro-6-fluoro-benzyl)-2-(4-fluoro-phenoxy)-nicotinamide] as the molecule, how does the melting point read?
**A.** The melting point was 115 to 118 °C.

**Q.** Which melting point does the source give for `C[C@H](NC(=O)c1cccnc1Oc1ccc(F)cc1)c1cccs1` [Example 6, (S)(−)2-(4-Fluoro-phenoxy)-N-(1-thiophen-2-yl-ethyl)-nicotinamide] here?
**A.** Its melting point is 59 to 61 °C.

**Q.** With `C[C@@H](NC(=O)c1cccnc1Oc1ccc(F)cc1)c1cccs1` [Example 7, (R)(+)2-(4-Fluoro-phenoxy)-N-(1-thiophen-2-yl-ethyl)-nicotinamide] as the molecule, how does the melting point read?
**A.** Its melting point is 60 to 62 °C.

**Q.** Which melting point does the source give for `CC(NC(=O)c1cccnc1Oc1ccc(F)cc1)c1ccc(Cl)s1` (stereo not drawn) [Example 8, N-[1-(5-Chloro-thiophen-2-yl)-ethyl]-2-(4-fluoro-phenoxy)-nicotinamide] here?
**A.** The melting point was 87 to 89 °C.

**Q.** With `O=C(NCc1ccccc1Cl)c1cccnc1Oc1ccc(F)cc1` [Example 9, N-(2-Chloro-benzyl)-2-(4-fluoro-phenoxy)-nicotinamide] as the molecule, how does the melting point read?
**A.** The melting point was 118 to 120 °C.

**Q.** Which melting point does the source give for `O=C(NCc1ccccc1Cl)c1cccnc1Oc1ccc(F)cc1F` [Example 10, N-(2-Chloro-benzyl)-2-(2,4-difluoro-phenoxy)-nicotinamide] here?
**A.** Its melting point is 122 to 124 °C.

**Q.** For `O=C(NCc1ccccc1Cl)c1cccnc1Oc1cccc(F)c1` [Example 11, N-(2-Chloro-benzyl)-2-(3-fluoro-phenoxy)-nicotinamide], which melting point is on record?
**A.** The melting point was 115 to 117 °C.

**Q.** Which melting point does the source give for `O=C(NCc1ccccc1Cl)c1cccnc1Oc1cccnc1` [Example 12, N-(2-Chloro-benzyl)-2-(pyridin-3-yloxy)-nicotinamide] here?
**A.** The melting point was 123 to 125 °C.

Reference: patent publication US6380218B1, “Nicotinamide derivatives” (Pfizer Inc, priority 1997, dated 2002)
